The values below come from patent publication US9688678B2, “Oxindole compounds carrying a nitrogen-bound spiro substituent and use thereof for treating vasopressin-related diseases” (AbbVie Deutschland GmbH & Co. KG, priority 2014, dated 2017).

Experiment [1] has as its target human vasopressin V1b receptor (Homo sapiens (Human), UniProt P47901). The experiment can be described thus: Vasopressin V1b receptor binding assay. The note with it: membranes from CHO-K1 cells, displacement of 3H-AVP. The method, then:
The test substances were dissolved in a concentration of 5 mM in 100% DMSO and further diluted to 5×10^−4 M to 5×10^−9 M. These serial DMSO predilutions were diluted 1:10 with assay buffer. The substance concentration was further diluted 1:5 in the assay mixture resulting in 2% DMSO in the mixture. All dilutions were performed in a Biomek NX automation workstation (Beckman)
The membrane pellet was again homogenized and centrifuged as described and subsequently taken up in 50 mM Tris-HCl, pH 7.4, homogenized and stored in aliquots frozen in liquid nitrogen at −190° C.
(§1) The incubation buffer was: 50 mM Tris, 10 mM MgCl2, 0.1% BSA, pH 7.4.
All determinations were carried out as duplicate determinations. […] The liquid scintillation measurement took place in a Microbeta TriLux 12 (Wallac). Analysis:
(§2) The binding parameters were calculated by nonlinear regression in SAS.
In general terms: Loss of bound radioactivity is the signal in a displacement assay; it reports binding, not function.

In experiment [2] the target is human vasopressin V1a receptor (Homo sapiens (Human), UniProt P37288). The experiment can be described thus: Vasopressin V1a receptor binding assay. The note with it: selectivity quotient, human V1a vs human V1b receptor. The method, then:
The test substances were dissolved in a concentration of 5 mM M in DMSO. Further dilution of these DMSO solutions took place as described for V1b.
The membrane pellet was again homogenized in a High-Pressure-Homogenizer, Polytec 50K at 1500 PSI (Heinemann, Germany) and subsequently taken up in 50 mM Tris-HCl, pH 7.4, homogenized and stored in aliquots frozen in liquid nitrogen at −190° C.
as §1
Duplicate determinations were carried out.
After incubation (60 minutes at room temperature), the samples were processed as described for V1b.
as §2

A word on the Ki: it is a measure of affinity in units of concentration, obtained from inhibition or displacement. A higher Ki goes with a looser hold on the target.

Chain of human vasopressin V1b receptor (P47901 whole entry): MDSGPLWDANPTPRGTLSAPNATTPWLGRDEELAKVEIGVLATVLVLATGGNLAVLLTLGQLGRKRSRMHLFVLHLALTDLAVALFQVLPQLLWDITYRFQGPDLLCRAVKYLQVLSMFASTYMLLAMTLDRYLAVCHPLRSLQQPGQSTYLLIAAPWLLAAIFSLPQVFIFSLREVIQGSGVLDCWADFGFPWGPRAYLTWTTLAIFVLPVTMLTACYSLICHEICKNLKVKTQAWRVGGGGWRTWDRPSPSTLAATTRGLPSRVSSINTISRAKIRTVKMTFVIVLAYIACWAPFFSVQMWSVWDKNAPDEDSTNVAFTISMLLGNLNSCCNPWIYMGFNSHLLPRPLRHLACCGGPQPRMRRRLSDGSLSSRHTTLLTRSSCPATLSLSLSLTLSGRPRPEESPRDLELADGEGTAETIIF
Chain of human vasopressin V1a receptor (P37288 whole entry): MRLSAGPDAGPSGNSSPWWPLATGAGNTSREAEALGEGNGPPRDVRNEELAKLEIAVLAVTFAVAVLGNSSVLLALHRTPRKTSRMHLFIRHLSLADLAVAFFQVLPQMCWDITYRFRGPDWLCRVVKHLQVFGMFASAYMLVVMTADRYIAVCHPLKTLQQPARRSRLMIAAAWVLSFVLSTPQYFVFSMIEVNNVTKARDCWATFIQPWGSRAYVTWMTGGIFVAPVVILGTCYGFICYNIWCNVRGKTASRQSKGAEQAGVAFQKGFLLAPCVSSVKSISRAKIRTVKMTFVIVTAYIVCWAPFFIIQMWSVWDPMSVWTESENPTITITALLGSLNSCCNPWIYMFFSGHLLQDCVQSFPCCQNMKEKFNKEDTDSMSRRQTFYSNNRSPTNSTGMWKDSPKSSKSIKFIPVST

Compound `CCOc1ccc(OC)cc1C1(N2CC3(CN(C4CCN(C)CC4)C3)C2)C(=O)N(S(=O)(=O)c2ccc(OC)cn2)c2ccc(C#N)cc21` (single isomer, unassigned; (-)) [Example 1B, (−)-3-(2-ethoxy-5-methoxy-phenyl)-1-[(5-methoxy-2-pyridyl)sulfonyl]-3-[2-(1-methyl-4-piperidyl)-2,6-diazaspiro[3.3]heptan-6-yl]-2-oxo-indoline-5-carbonitrile] showed a Ki in experiment [1] of 10 to 100 nM. The “Ki(h-V1a)/ Ki(h-V1b)” value in experiment [2] is reported as “+++ (>75)”.
Taken in the same sequence, the figures for `CCOc1ccc(OC)cc1[C@]1(N2CC3(CN(C4CCN(C)CC4)C3)C2)C(=O)N(S(=O)(=O)c2ccc(OC)nc2)c2ccc(C#N)cc21` [Example 31, (3S)-3-(2-ethoxy-5-methoxy-phenyl)-1-[(6-methoxy-3-pyridyl)sulfonyl]-3-[2-(1-methyl-4-piperidyl)-2,6-diazaspiro[3.3]heptan-6-yl]-2-oxo-indoline-5-carbonitrile] were 1 to 10 nM and “+ (10-<25)”.
Compound `CCOc1ccc(OC)cc1[C@]1(N2CC3(CN(C4CCN(C)CC4)C3)C2)C(=O)N(S(=O)(=O)c2ccccn2)c2ccc(C#N)cc21` [Example 33, (3S)-3-(2-ethoxy-5-methoxy-phenyl)-3-[2-(1-methyl-4-piperidyl)-2,6-diazaspiro[3.3]heptan-6-yl]-2-oxo-1-(2-pyridylsulfonyl)indoline-5-carbonitrile] gave a Ki in experiment [1] of 1 to 10 nM. Besides, the “Ki(h-V1a)/ Ki(h-V1b)” value in experiment [2] was “+++ (>75)”.
For the compound `CCOc1ccc(OC)cc1[C@]1(N2CC3(CN(C4CCN(C)CC4)C3)C2)C(=O)N(S(=O)(=O)c2ccc(Cl)cn2)c2ccc(C#N)cc21` [Example 34, (3S)-1-[(5-chloro-2-pyridyl)sulfonyl]-3-(2-ethoxy-5-methoxy-phenyl)-3-[2-(1-methyl-4-piperidyl)-2,6-diazaspiro[3.3]heptan-6-yl]-2-oxo-indoline-5-carbonitrile], in experiment [1], the Ki is < 1 nM. Also, the “Ki(h-V1a)/ Ki(h-V1b)” value in experiment [2] is recorded as “+++ (>75)”.
